“Also recorded” adds a separate entry of the source. Where two headings read alike, the source gives them in different places.
Legend:
[1] = test system: LTB4-induced PMN infiltration; conditions: added topically, in vivo; cited from earlier work
[2] = test system: TNF-a-induced PMN infiltration; experiment: TNF-a-induced PMN infiltration into mouse dorsal air pouch; format: in vivo; design: toxicity to the mice: dose or concentration left out as unconfirmed; conditions: for inhibition of TNF-a-induced PMN infiltration, local air pouch delivery: local into air pouch prior to TNF-a (20 ng/mouse), ATLa2 and dexamethasone, ASA 1.0 mg/mouse
Description: When injected locally into the air pouch, following injection of vehicle (900 ml PBS), murine TNF-a (20 ng/100 ml PBS) induced the infiltration of 4.8±1.1×10^6 PMN by 4 h. Dexamethasone (10 mg/air pouch), ASA (1 mg/air pouch), and ATLa2 (10 mg/air pouch) were locally administered in 900 ml PBS and prior to TNF-a. Systemic delivery of ATLa2 was by i.v. injection into the mouse tail vein (10 mg/mouse). 2.1±0.7×105 PMN were found in the air pouch 4 h after injection of vehicle (1 ml sterile PBS) alone. Values represent mean±SEM (n=3-5). *P<0.05, †P<0.15 Student's two-tailed t-test
PMN infiltration into mouse air pouch. While male BALB/c mice (6-8 wk) were anesthetized with isoflurane, dorsal air pouches were raised by injecting 3 ml of sterile air subcutaneously on days 0 and 3 (as in ref.) (Sin, Y. M., Sedgwick, A. D., Chea, E. P. & Willoughby, D. A. (1986) Ann. Rheum. Dis. 45, 873-877). On day 6 and while the mice were anesthetized with isoflurane, 10 mg of ATLa2 was delivered as a bolus injection into either the tail vein in 100 ml of sterile 0.9% saline or locally into the air pouch in 900 ml of PBS −/− (Dulbecco's Phosphate Buffered Saline without magnesium or calcium ions, BioWhittaker, Walkersville, Md.). Dexamethasone and ASA (Sigma Chemical Co., St. Louis, Mo.) were delivered locally as 10 mg and 1.0 mg doses in 900 ml of PBS −/−, respectively. Inflammation in the air pouch was induced by local injection of recombinant murine TNF-a (20 ng) (Boehringer Mannheim, Indianapolis, Ind.) dissolved in 100 ml of sterile PBS. While the mice were anesthetized with isoflurane, the air pouches were lavaged twice with 3 ml of sterile PBS 4 h after the initial TNF-a injection. Aspirates were centrifuged at 2000 rpm for 15 min at 23° C. The supernatants were removed and the cells were suspended in […] of PBS. Aliquots of the cell suspension were stained with Trypan Blue and enumerated by light microscopy. 50 ml of the resuspended aspirate cells were added to 150 ml of 30% BSA and centrifuged onto microscope slides at 2200 rpm for 4 min using a Cytofuge (StatSpin, Norwood, Mass.). Slides were allowed to air dry and were stained with Wright Giemsa stain (Sigma Chemical Co., St. Louis, Mo.) for determination of differential leukocyte counts. For microscopic analysis, tissues were obtained with a 6 mm tissue biopsy punch (Acu-Punch, Acuderm, Inc., Ft. Lauderdale, Fla.) and fixed in 10% buffered formaldehyde. Samples were then embedded in paraffin, sliced, and stained with hematoxylin-eosin.

[3] = Mouse arterial pressure after tail vein injection; format: in vivo; design: maximum mean decrease in arterial pressure: dose or concentration left out as unconfirmed
Description: Mouse arterial pressure was monitored with a pressure transducer via the cannulated carotid artery. […] 10 mg of ATLa2 were injected into 3 mice with no change in mean arterial pressure. Values represent mean±SEM (n=3). Arterial pressure. Male BALB/c mice (6-8 wk, 20 g) were anesthetized with pentobarbital (80 mg/kg). The trachea was isolated and a small polyethylene catheter (PE50) was introduced to maintain a patent airway. The right carotid artery was isolated and cannulated with PE 10 tubing filled with heparinized (10 units/ml) normal saline. The arterial catheter was connected to a pressure transducer (World Precision Instruments, Sarasota, Fla.) and the arterial pressure tracing was recorded continuously (Astromed MT95K2, West Warwick, R.I.). All surgical manipulations were performed using a surgical microscope (Carl Zeiss, Inc., Thomwood, N.Y.).

[4] = Methyl ester hydrolysis of ATLa2 to free acid in ex vivo mouse whole blood; format: in vitro ADME; conditions: within 10-15 minutes, 2.8 μM in mouse whole blood
Description: FIG. 7 represents methyl ester hydrolysis of ATLa2 to free acid in ex vivo mouse whole blood. ATLa2 was incubated ex vivo in mouse whole blood (2.8 μM) for 0, 2, 5, 10, 15, or 180 minutes. The incubations were stopped by chilling the blood on ice for one minute followed by centrifugation (800×g) at 0° C. The plasma supernatant was stopped in 2 vol of ice cold methanol. The samples were prepared for analysis by solid phase extraction and the amount of free acid in the sample was quantiitated by LC/MS/MS. Within 10-15 minutes, 100% of the ATLa2 methyl ester is hydrolyzed to the free acid without loss of compound. Values represent mean±SEM (n=3).

[5] = male, BALB/c, 3 h, 2.4 mM
Description: (§1) LXA4 (21 mM) was incubated ex vivo in mouse whole blood for 3 h. […] (B) Biostability of LXA4 and stable analogs in mouse whole blood. LXA4, 15(R/S)-methyl-LXA4 (ATLa1, which carries a racemic methyl group at C-15), and 15-epi-16-(para-fluoro)-phenoxy-LXA4(ATLa2, in which a bulky (para-fluoro)-phenoxy group replaces the w-chain at C-16) were added (see Methods) to heparinized mouse whole blood and incubated at 37° C. for 0 and 3 h. Following centrifugation at 800×g and 0° C., the plasma supernatants were drawn off and stopped in two volumes of ice cold methanol. The lipoxins were extracted by solid phase methodology and quantitated by LC/MS/MS. Values represent means±SEM (n=3-4).
(§2) Biostability of LX analogs in mouse whole blood. […] The methyl formate fractions were taken to dryness with a gentle stream of nitrogen and suspended in methanol for injection and quantitative analyses by UV spectrophotometry and LC/MS/MS.
(§3) LC/MS/MS analyses. […] Samples were suspended in methanol and injected into the HPLC component, which consisted of a SpectraSYSTEM P4000 (Thermo Separation Products, San Jose, Calif.) quaternary gradient pump, a Prodigy octadecylsilane-3 (100×2 mm, 5 mm) column (Phenomenex, Torrance, Calif.) or a LUNA C18-2 (150×2 mm, 5 mm) column, and a rapid spectra scanning SpectraSYSTEM UV2000 (Thermo Separation Products, San Jose, Calif.) UV/VIS absorbance detector. […]

isolated rat aorta = experiment: Relaxation of pre-contracted isolated rat aorta; design: relaxation as % of the level of relaxation caused by Iloprost: dose or concentration left out as unconfirmed; conditions: for relaxation of smooth muscle: aorta pre-contracted with U46619 (25 ng/ml)
Description: Rats were euthanized with pentobarbital overdoses. The aorta was isolated and a pre-load of 300-400 mg given. The vessels were pre-contracted with U46619 (25 ng/ml). Relaxation was induced with addition of Iloprost, 5(R/S)-methyl-LXB4, ATLa1, or ATLa2 to a final concentration of […]. Aorta smooth muscle relaxation was measured with a force transducer and the data digitized and stored on a PC. 5(R/S)-methyl -LXB4, ATLa1, and ATLa2 caused 42.8%, 37.0%, 38.1%, and 40.0% relaxation of smooth muscle, respectively. Values represent±SEM (n=4-6).
For example, topical administration of LXA4 ([…]) induces arteriolar dilation in the hamster cheek with no change in venular diameters while systemic delivery into rats produces a vasoconstrictor response in the mesenteric bed (26). In addition, 20 min infusion of 1 or 2 mg/kg LXA4 induces renal vasorelaxation in rats without changing mean arterial pressure (27). To determine whether the increased stability of ATLa2 enhances potential vasoreactivity at the therapeutic dose found to inhibit PMN infiltration in FIGS. 2 and 5, vascular changes in response to ATLa2 were compared directly to those of Iloprost, a prostacyclin stable analog that rapidly stimulates arterial vasodilation (Grant, S. M. & Goa, K. L. (1992) Drugs 43, 899-924). Added to organ baths, ATLa2 relaxed precontracted isolated rat aorta to ˜40% of the level of relaxation caused by equimolar treatment ([…]) with Iloprost (not shown). […] In sharp contrast, injection of equimolar quantities of Iloprost elicited a maximum mean decrease of ˜28 mmHg ˜50 s post-injection, with pressure returning to baseline after ˜8 min.

[6] = Biostability in human whole blood; format: in vitro ADME
[7] = Biostability of LX analogs in mouse whole blood; conditions: incubated 3 h at 37° C., LC/MS/MS
Description: as §1, §2, §3

CCCCC[C@H](O)/C=C/C=C\C=C\C=C\[C@@H](O)[C@@H](O)CCCC(=O)O [LXA4, 5S,6R,15S-trihydroxyeicosa-7E,9E,11Z,13E-tetraenoic acid]
level of inhibition of LTB4-induced PMN recruitment compared to that of either ATLa1 or ATLa2 [1]: less than 25%

CC(=O)Oc1ccccc1C(=O)O [ASA, acetylsalicylic acid, reference compound]
inhibition of TNF-a-induced PMN infiltration, local air pouch delivery ([2]; 4 h): 69%

C[C@@H]1C[C@H]2[C@@H]3CCC4=CC(=O)C=C[C@]4(C)[C@@]3(F)[C@@H](O)C[C@]2(C)[C@@]1(O)C(=O)CO [dexamethasone, reference compound]
inhibition of TNF-a-induced PMN infiltration, local air pouch delivery ([2]; 4 h): 61%

COC(=O)CCC[C@H](O)[C@H](O)/C=C/C=C/C=C\C=C\[C@H](O)COc1ccc(F)cc1 [ATLa2]
change in mean arterial pressure ([3]; (24 nmol/mouse) tail vein injection): no apparent changes; also recorded: no change | inhibition of TNF-a-induced PMN infiltration, i.v. delivery ([2]; i.v. tail vein before TNF-a (20 ng/mouse), 4 h): 85% | number of neutrophils in tissue lining of the air pouch (histology) ([2]; intra-pouch injection or i.v. prior to TNF-a): reduced | inhibition of TNF-a-induced PMN infiltration, local air pouch delivery ([2]; 4 h): ~77% | toxicity to the mice ([2]; local or i.v.): no apparent toxicity | ATLa2 methyl ester hydrolyzed to the free acid [4]: 100% | remaining / recoverable in mouse whole blood [5]: ~100% | relaxation of smooth muscle (isolated rat aorta): 40.0% | relaxation as % of the level of relaxation caused by Iloprost (isolated rat aorta; organ baths): ~40%

CCCCCC(C)(O)/C=C/C=C\C=C\C=C\[C@@H](O)[C@@H](O)CCCC(=O)O (mixture of isomers) [ATLa1, 15(R/S)-methyl-LXA4]
biostability in human whole blood compared with mouse whole blood [6]: quantitatively similar results | remaining / recoverable in mouse whole blood [7]: ~90% | relaxation of smooth muscle (isolated rat aorta): 38.1%

CCCCCC(O)C(O)C=CC=CC=CC=CC(C)(O)CCCC(=O)O (racemic) [5(R/S)-methyl-LXB4]
relaxation of smooth muscle (isolated rat aorta): 37.0%

CC#CCC(C)[C@H](O)/C=C/[C@@H]1[C@H]2C/C(=C/CCCC(=O)O)C[C@H]2C[C@H]1O (stereo partly shown) [Iloprost, reference compound]
time of maximum mean decrease post-injection ([3]; tail vein injection): ~50 s | maximum mean decrease in arterial pressure ([3]; tail vein injection, (equimolar to ATLa2)): ~28 mmHg | relaxation of smooth muscle (isolated rat aorta): 42.8%
